Results on 18 molecules are retold here after patent publication US20250134871A1, “UPR MODULATORS TO TREAT HEARING LOSS” (JACARANDA BIOSCIENCES, INC., priority 2021, published 2025).

In one assay the test system is CHOP. The assay can be described thus: ER stress induction in HEK cells treated with compounds (CHOP mRNA, qPCR). The class given is cell-based. The note with it: HEK 293 cells, 0.5 μM thapsigargin and 0.1 to 5.0 μM of each drug for 2 hours; CHOP mRNA by qPCR, ΔΔCt vs GAPDH. How it is done:
HEK 293 cells were cultured in DMEM with 10% FBS, Pen/Strep in 5% CO2, at 37° C. in incubator. Cells were split and seeded at approximately 2×10^4 cells in each well of 96-well plate one day before treatment. Cells were grown in good shape and passaged one or two times before testing.
Cells were treated with 0.5 μM thapsigargin and 0.1 to 5.0 μM of each drug for 2 hours. The cells were then harvested, pelleted and treated to ready for testing mRNA abundance for specific UPR genes from cells in the PCR reaction using the TaqMan™ Gene Expression Cells-to-CT™ Kit (Thermo Fisher). Prescreened primers were ordered from Bio-Rad. The gene tested is CHOP, (the C/EBP Homologous Protein). These markers were compared against GAPDH. The qPCR system we used was CFX 384 Real time (Bio-Rad). Samples were measured in triplicates and relative quantification, by the ΔΔCt-method, using GAPDH as reference. The biological results are summarized in Table 1 where A represents a greater than 50% reduction in CHOP signal in compound-treated versus untreated cells, B represents a 20% to 50% reduction in CHOP signal, and C represents a 1% to 20% reduction in CHOP signal.
Regarding `CC(C)(C)c1ccc(OCC(=O)Nc2cnc(NC(=O)COc3ccc(C(C)(C)C)cc3)c(Br)c2)cc1` [Compound B7, 2-(4-tert-Butylphenoxy)-N-[5-bromo-6-[[2-(4-tert-butylphenoxy)acetyl]amino]pyridin-3-yl]acetamide], the CHOP reduction entry is reported as “B (B represents a 20% to 50% reduction in CHOP signal)”.

As for `O=C(COc1ccccc1)Nc1ccc(NC(=O)COc2ccccc2)c(Cl)c1` [Compound C5, 2-Phenoxy-N-[2-chloro-4-(2-phenoxyacetylamino)phenyl]acetamide], the CHOP reduction entry is given as “B (B represents a 20% to 50% reduction in CHOP signal)”.

Take `Cc1cc(NC(=O)COc2ccccc2)ccc1NC(=O)COc1ccccc1` [Compound C1, 2-Phenoxy-N-[2-methyl-4-(2-phenoxyacetylamino)phenyl]acetamide]: the CHOP reduction entry was “B (B represents a 20% to 50% reduction in CHOP signal)”.

For `Cc1ccc(OCC(=O)Nc2cnc(NC(=O)COc3ccc(C)cc3)c(Br)c2)cc1` [Compound B6, 2-(4-Methylphenoxy)-N-[5-bromo-6-[[2-(4-methylphenoxy)acetyl]amino]pyridin-3-yl]acetamide], the CHOP reduction result is reported as “C (C represents a 1% to 20% reduction in CHOP signal)”.

For `O=C(COc1ccc(Cl)cc1)Nc1ccc(NC(=O)COc2ccc(Cl)cc2)cc1` [Compound A2, 2-(4-Chlorophenoxy)-N-[4-[[2-(4-chlorophenoxy)acetyl]amino]phenyl]acetamide], the CHOP reduction result is “B (B represents a 20% to 50% reduction in CHOP signal)”.

Regarding `Cc1ccc(OCC(=O)Nc2ccc(NC(=O)COc3ccc(C)cc3)c(Cl)c2)cc1` [Compound C7, N,N′-2-Chlorobenzene-1,4-diylbis[2-(4-methylphenoxy)acetamide]], the CHOP reduction result is on record as “C (C represents a 1% to 20% reduction in CHOP signal)”.

Turning to `O=C(COc1ccccc1)Nc1ccc(NC(=O)COc2ccccc2)nc1` [Compound B1, 2-Phenoxy-N-[6-[[2-phenoxyacetyl]amino]pyridin-3-yl]acetamide], the CHOP reduction result is listed as “C (C represents a 1% to 20% reduction in CHOP signal)”.

For `Cc1ccc(OCC(=O)Nc2ccc(NC(=O)COc3ccc(C)cc3)cc2)cc1` [Compound A4, N,N′-Benzene-1,4-diylbis [2-(4-methylphenoxy)acetamide]], the CHOP reduction result was “C (C represents a 1% to 20% reduction in CHOP signal)”.

`Cc1ccc(OCC(=O)Nc2ccc(NC(=O)COc3ccc(C)cc3)nc2)cc1` [Compound B3, 2-(4-Methylphenoxy)-N-[6-[[2-(4-methylphenoxy)acetyl]amino]pyridin-3-yl]acetamide]: the CHOP reduction entry is “B (B represents a 20% to 50% reduction in CHOP signal)”.

Consider `O=C(COc1ccccc1)Nc1ccc(NC(=O)COc2ccccc2)cc1` [Compound A1, 2-Phenoxy-N-[4-(2-phenoxyacetylamino)phenyl]acetamide], for which the CHOP reduction entry is “A (A represents a greater than 50% reduction in CHOP signal in compound-treated versus untreated cells)”.

For `CC(C)(C)c1ccc(OCC(=O)Nc2ccc(NC(=O)COc3ccc(C(C)(C)C)cc3)c(Cl)c2)cc1` [Compound C8, N,N′-2-Chlorobenzene-1,4-diylbis[2-(4-tert-butylphenoxy)acetamide]], the CHOP reduction result is given as “B (B represents a 20% to 50% reduction in CHOP signal)”.

In the case of `O=C(COc1ccc(Cl)cc1)Nc1ccc(NC(=O)COc2ccc(Cl)cc2)nc1` [Compound B2, 2-(4-Chlorophenoxy)-N-[6-[[2-(4-chlorophenoxy)acetyl]amino]pyridin-3-yl]acetamide], the CHOP reduction result was “A (A represents a greater than 50% reduction in CHOP signal in compound-treated versus untreated cells)”.

With `O=C(COc1ccc(Cl)cc1)Nc1cnc(NC(=O)COc2ccc(Cl)cc2)c(Br)c1` [Compound B5, 2-(4-Chlorophenoxy)-N-[5-bromo-6-[[2-(4-chlorophenoxy)acetyl]amino]pyridin-3-yl]acetamide], the CHOP reduction entry is on record as “C (C represents a 1% to 20% reduction in CHOP signal)”.

Take `Cc1cc(NC(=O)COc2ccc(Cl)cc2)ccc1NC(=O)COc1ccc(Cl)cc1` [Compound C2, 2-(4-Chlorophenoxy)-N-[2-methyl-4-[[2-(4-chlorophenoxy)acetyl]amino]phenyl]acetamide]: the CHOP reduction entry is “A (A represents a greater than 50% reduction in CHOP signal in compound-treated versus untreated cells)”.

As for `O=C(COc1ccc(Cl)cc1)Nc1ccc(NC(=O)COc2ccc(Cl)cc2)c(Cl)c1` [Compound C6, 2-(4-Chlorophenoxy)-N-[2-chloro-4-[[2-(4-chlorophenoxy)acetyl]amino]phenyl]acetamide], the CHOP reduction entry is “A (A represents a greater than 50% reduction in CHOP signal in compound-treated versus untreated cells)”.

With `CC(C)(C)c1ccc(OCC(=O)Nc2ccc(NC(=O)COc3ccc(C(C)(C)C)cc3)cc2)cc1` [Compound A3, N,N′-Benzene-1,4-diylbis [2-(4-tert-butylphenoxy)acetamide]], the CHOP reduction result is given as “C (C represents a 1% to 20% reduction in CHOP signal)”.

In the case of `O=C(COc1ccccc1)Nc1cnc(NC(=O)COc2ccccc2)c(Br)c1` [Compound B4, 2-Phenoxy-N-[5-bromo-6-[[2-phenoxyacetyl]amino]pyridin-3-yl]acetamide], the CHOP reduction result is recorded as “C (C represents a 1% to 20% reduction in CHOP signal)”.

The next assay has as its system hearing loss from noise exposure.
Test: not given
The note with it: after a transient threshold shift; cited from earlier work.
Turning to `O=C(COc1ccc(Cl)cc1)NC1CCC(NC(=O)COc2ccc(Cl)cc2)CC1` (stereo not shown) [ISRIB], the “cochlear synaptopathy after a transient threshold shift” value is “can prevent cochlear synatopathy after a transient threshold shift”.

The same assay, now with this note: mice, noise exposure; cited from earlier work.
In the case of `O=C(COc1ccc(Cl)cc1)NC1CCC(NC(=O)COc2ccc(Cl)cc2)CC1` (stereo not shown) [ISRIB], the “hearing loss from noise exposure (permanent threshold shift)” value is listed as “can prevent hearing loss in mice from noise exposure”.
